Test results reported in patent publication US9266827B2, “Bicyclic sulfone compounds for inhibition of RORgamma activity and the treatment of disease” (Merck Sharp & Dohme Corp., priority 2012, dated 2016).

Molecular target: T1, RORγ-LBD (Homo sapiens, UniProt P51449)
T1 construct: made in house; host or cells: SF9 insect cells, baculovirus; crude lysate used
T1 sequence (P51449 269-508 limits assumed): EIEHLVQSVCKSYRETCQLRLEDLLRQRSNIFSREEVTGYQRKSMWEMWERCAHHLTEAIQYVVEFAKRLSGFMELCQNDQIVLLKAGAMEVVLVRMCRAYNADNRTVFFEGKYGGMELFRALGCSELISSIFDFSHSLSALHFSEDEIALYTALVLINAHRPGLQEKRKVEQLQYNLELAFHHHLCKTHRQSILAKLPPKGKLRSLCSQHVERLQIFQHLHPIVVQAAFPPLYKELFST
Experiment: RORγ-Ligand Binding Domain (LBD) TR-FRET Assay
Format: biochemical
Settings: recombinant HIS-tagged RORγ-LBD lysate, biotinylated SRC1-2 LXXLL peptide
Protocol: Recombinant, HIS-tagged RORγ-LBD was expressed in SF9 cells using a baculovirus expression system. Cells were lysed and the lysate was used as a source for RORγ-LBD for the assay. A 1:80 dilution of RORγ-LBD lysate in assay buffer (25 mM HEPES pH 7.0, 100 mM NaCl, 0.01% Tween, 0.1% BSA) was prepared and 5 μL was added to each well (RORγ-LBD final concentration ˜3 nM). Control wells received lysate from SF9 cells not expressing RORγ-LBD.
Compounds to be tested were diluted to 100× final test concentration in DMSO and further diluted to 4× final test concentration using assay buffer to provide the test compound mixture. An aliquot (5 μL) of the test compound mixture was added to each well.
A 4× stock of biotinylated-LXXLL peptide from SRC1-2 (Biotin-[…]) was prepared in assay buffer and a 5 μL aliquot added to each well (450 nM final concentration). A 4× solution of europium tagged anti-HIS antibody (2 nM final concentration) and APC conjugated streptavidin (60 nM final concentration) were prepared and a 5 μL aliquot added to each well.
The final assay mixture was incubated for 4 hours to overnight, and the fluorescence signal was measured on an Envision plate reader: (Excitation filter=340 nm; APC emission=665 nm; Europium emission=615 nm; dichroic mirror=D400/D630; delay time=100 μs, integration time=200 μs).
EC50 values for test compounds were calculated from the quotient of the fluorescence signal at 665 nm divided by the fluorescence signal at 615 nm using GraphPad Prism software

Structure (SMILES) | EC50 [nM]
O=C(Nc1ccc2c(c1)C(S(=O)(=O)c1ccc(C(F)(F)F)cc1)CCC2)c1c(F)cccc1Cl (stereo not shown) [Compound 1, 2-Chloro-6-fluoro-N-[8-(4-trifluoromethylbenzenesulfonyl)-5,6,7,8-tetrahydronaphthalen-2-yl]benzamide] | < 150
O=C(Nc1ccc2c(c1)C(S(=O)(=O)c1ccc(C(F)(F)F)cc1)CCC2)c1c(Cl)cccc1C(F)(F)F (stereo not shown) [IV-1] | < 150
O=C(Nc1ccc2c(c1)C(S(=O)(=O)c1ccc(C(F)(F)F)cc1)CCC2)c1c(F)cccc1C(F)(F)F (stereo not shown) [IV-2] | < 150
O=C(Nc1ccc2c(c1)C(S(=O)(=O)c1ccc(C(F)(F)F)cc1)CCC2)c1c(F)cccc1F (stereo not shown) [IV-4] | < 150
